Patent publication US4018895A, “Aryloxyphenylpropylamines in treating depression” (Eli Lilly and Company, priority 1975, dated 1977)
Structures can show the parent of a compound that is named as a salt. Where two headings read alike, the source gives them in different places.

Legend:
[1] = test system: serotonin uptake by synaptosomes from rat brain; assay: In vitro blockade of serotonin uptake by synaptosomes from rat brain; format: biochemical; settings: Table 1, scaffold drawing 3; serotonin 0.1 μM
Excerpt: (§1) This blockade is shown both in vitro with radioactive labelled compounds to determine the amount of monoamine uptake by synaptosomes from rat brain, and in vivo by a variety of methods. Among the physiologically active monoamines whose uptake is blocked by the compounds of this invention are included serotonin, norepinephrine and dopamine (3,4-dihydroxyphenylethylamine). […] Tables 1 and 2 which follow set forth the results of some of the in vitro determinations of the blockage of monoamine uptake by the compounds of this invention. In the tables, column 1 gives the R substituent on the 3-phenylpropylamine and columns 2-4, the concentration in micrograms per ml. that blocks the uptake of a particular amine by 50 percent for the amines--norephinephrine, serotonin, and dopamine. At the head of each column is given the concentration of the particular monoamine used in the experiment.

[2] = test system: dopamine uptake by synaptosomes from rat brain; assay: In vitro blockade of dopamine uptake by synaptosomes from rat brain; format: biochemical; settings: Table 1, scaffold drawing 3; dopamine 0.2 μM
Excerpt: as §1

[3] = test system: hypothermia induced by the injection of apomorphine; assay: Apomorphine hypothermia antagonism test; format: in vivo, mice; settings: for Activity in antagonism of apomorphine hypothermia: in words
Protocol: The apomorphine hypothermia antagonism test is carried out as follows: mice are injected with a dose of apomorphine known to reduce body temperature approximately 4° C. […] The degree of antagonism is expressed as a percent reduction (as compared with controls) of the temperature decrease produced by the injection of the apomorphine. The reserpine hypothermia reversal test is carried out as follows: groups of mice are injected with reserpine and 16.5 hours later are injected intraperitoneally with graded doses of the drug, a different dose level being given to each group of mice. Temperatures are measured at 1 hour after injection of the drug under test and again the effectiveness of the drug is expressed as a percentage decrease in the hypothermia induced by the injection of reserpine as compared with the control group. In the tablets which follow, Table 4 gives the results in the apomorphine antagonism and reserpine reversal hypothermia tests for the secondary amines of this invention. In the table, the first column gives the substituent attached to the oxygen atom at the 3 position of the propylamine chain; columns 2 to 4 the percent antagonism against apomorphine hypothermia at dose levels of 0.3, 1 and 3 mg./kg. and columns 5-7 the percent reversal of reserpine hypothermia at the same dose levels.

[4] = test system: hypothermia induced by the injection of reserpine; assay: Reserpine hypothermia reversal test; format: in vivo, mice; settings: for inhibition in vivo at 3 mg/kg / inhibition in vivo at 10 mg/kg / inhibition in vivo at 1 mg/kg / inhibition in vivo at 0.3 mg/kg: Mus musculus, ip, 1 h, Post-60 min., mice, read-out: Percent Antagonism Reserpine; for inhibition in vivo at 3 mg/kg: 3 mg./kg. intraperitoneally; for inhibition in vivo at 10 mg/kg: 10 mg./kg. intraperitoneally; for inhibition in vivo at 1 mg/kg: 1 mg./kg. intraperitoneally; for inhibition in vivo at 0.3 mg/kg: .3 mg./kg. intraperitoneally; for Activity in reversal of reserpine hypothermia: in words
Protocol: The apomorphine hypothermia antagonism test is carried out as follows: mice are injected with a dose of apomorphine known to reduce body temperature approximately 4° C. The compound under test is injected 1/2 hour before the injection of the apomorphine and the temperatures measured 1/2 hour after injection. The degree of antagonism is expressed as a percent reduction (as compared with controls) of the temperature decrease produced by the injection of the apomorphine. The reserpine hypothermia reversal test is carried out as follows: groups of mice are injected with reserpine and 16.5 hours later are injected intraperitoneally with graded doses of the drug, a different dose level being given to each group of mice. Temperatures are measured at 1 hour after injection of the drug under test and again the effectiveness of the drug is expressed as a percentage decrease in the hypothermia induced by the injection of reserpine as compared with the control group. In the tablets which follow, Table 4 gives the results in the apomorphine antagonism and reserpine reversal hypothermia tests for the secondary amines of this invention. In the table, the first column gives the substituent attached to the oxygen atom at the 3 position of the propylamine chain; columns 2 to 4 the percent antagonism against apomorphine hypothermia at dose levels of 0.3, 1 and 3 mg./kg. and columns 5-7 the percent reversal of reserpine hypothermia at the same dose levels.

[5] = test system: norepinephrine uptake by synaptosomes from rat brain; assay: In vitro blockade of norepinephrine uptake by synaptosomes from rat brain; format: biochemical; settings: Table 1, scaffold drawing 3; norepinephrine 0.48 μM
Excerpt: as §1

[6] = Mus musculus, Table 5, dimethylamino compounds, 1 mg./kg., Pre-30 min., mice, read-out: Percent Antagonism Apomorphine
[7] = Mus musculus, Table 5, dimethylamino compounds, 3 mg./kg., Pre-30 min., mice, read-out: Percent Antagonism Apomorphine
[8] = Mus musculus, Table 5, dimethylamino compounds, 10 mg./kg., Pre-30 min., mice, read-out: Percent Antagonism Apomorphine
[9] = Table 5, dimethylamino compounds

With CN(C)CCC(Oc1ccccc1Br)c1ccccc1.O=C(O)C(=O)O (stereo not shown) [o-bromophenyl, N,N-dimethyl 3-(o-bromophenoxy)-3-phenylpropylamine oxalate] the “Concentration that blocks 50% of amine uptake, Serotonin” value [1] was “.1 mcq./ml”, the “Concentration that blocks 50% of amine uptake, Dopamine” value [2] was 5 mcq./ml and the inhibition in vivo at 1 mg/kg [3, 6] was 19%. For the same compound, the inhibition in vivo at 3 mg/kg [3, 7] was 40%, the inhibition in vivo at 10 mg/kg [3, 8] was 47% and the inhibition in vivo at 3 mg/kg [4, 9] was 18%. For the same compound, the inhibition in vivo at 10 mg/kg [4, 9] was 30%.

CN(C)CCC(Oc1ccccc1Cl)c1ccccc1.O=C(O)/C=C\C(=O)O (stereo not shown) [o-chlorophenyl, N,N-dimethyl 3-(o-chlorophenoxy)-3-phenylpropylamine maleate] was tested, and the “Concentration that blocks 50% of amine uptake, Norepinephrine” value [5] was “.45 mcq./ml”, the “Concentration that blocks 50% of amine uptake, Serotonin” value [1] was “.2 mcq./ml” and the “Concentration that blocks 50% of amine uptake, Dopamine” value [2] was “.2 mcq./ml”. For the same compound, the inhibition in vivo at 1 mg/kg [3, 6] was -10%, the inhibition in vivo at 3 mg/kg [3, 7] was -17% and the inhibition in vivo at 10 mg/kg [3, 8] was 57%. The inhibition in vivo at 1 mg/kg [4, 9] was 3%, the inhibition in vivo at 3 mg/kg [4, 9] was 4% and the inhibition in vivo at 10 mg/kg [4, 9] was 25%.

For Cc1cc(F)ccc1OC(CCN(C)C)c1ccccc1.O=C(O)C(=O)O (stereo not shown) [4-fluoro-o-tolyl, N,N-dimethyl 3-(p-fluoro-o-tolyloxy)-3-phenylpropylamine oxalate], the “Concentration that blocks 50% of amine uptake, Norepinephrine” value [5] was 2.5 mcq./ml, the “Concentration that blocks 50% of amine uptake, Serotonin” value [1] was “.6 mcq./ml” and the “Concentration that blocks 50% of amine uptake, Dopamine” value [2] was 40 mcq./ml.

With CC(C)c1ccccc1OC(CCN(C)C)c1ccccc1 (stereo not shown) [o-isopropylphenyl, oxalate] the “Concentration that blocks 50% of amine uptake, Norepinephrine” value [5] was 1.5 mcq./ml, the “Concentration that blocks 50% of amine uptake, Serotonin” value [1] was > 100 mcq./ml and the “Concentration that blocks 50% of amine uptake, Dopamine” value [2] was > 100 mcq./ml. The “Percent Antagonism Apomorphine” value ([3]; Table 5, dimethylamino compounds, 1 mg./kg., Pre-30 min., mice) was 17%, the “Percent Antagonism Apomorphine” value ([3]; Table 5, dimethylamino compounds, 3 mg./kg., Pre-30 min., mice) was 39% and the “Percent Antagonism Apomorphine” value ([3]; Table 5, dimethylamino compounds, 10 mg./kg., Pre-30 min., mice) was 65%. For the same compound, the “Percent Antagonism Apomorphine” value ([3]; Table 5, dimethylamino compounds, .3 mg./kg., Pre-30 min., mice) was 3%, the inhibition in vivo at 1 mg/kg [4, 9] was 20% and the inhibition in vivo at 3 mg/kg [4, 9] was 28%. The inhibition in vivo at 10 mg/kg [4, 9] was 35% and the inhibition in vivo at 0.3 mg/kg [4, 9] was 12%.

CN(C)CCC(Oc1ccc(Cl)cc1)c1ccccc1 (stereo not shown) [p-chlorophenyl] gave an inhibition in vivo at 1 mg/kg ([3]; Mus musculus, Table 4, secondary amines, 1 mg./kg., Pre-30 min., mice, read-out: Percent Antagonism Apomorphine) of 29%, an inhibition in vivo at 3 mg/kg ([3]; Mus musculus, Table 4, secondary amines, 3 mg./kg., Pre-30 min., mice, read-out: Percent Antagonism Apomorphine) of 37% and an inhibition in vivo at 0.3 mg/kg ([3]; Mus musculus, Table 4, secondary amines, .3 mg./kg., Pre-30 min., mice, read-out: Percent Antagonism Apomorphine) of 32%. The inhibition in vivo at 1 mg/kg [3, 6] was 7%, the inhibition in vivo at 3 mg/kg [3, 7] was 43% and the inhibition in vivo at 10 mg/kg [3, 8] was 85%.

CN(C)CCC(Oc1ccccc1C(C)(C)C)c1ccccc1.O=C(O)C(=O)O (stereo not shown) [o-t-butylphenyl, N,N-dimethyl 3-phenyl-3-(o-t-butylphenoxy)propylamine oxalate] was tested, and the “Concentration that blocks 50% of amine uptake, Norepinephrine” value [5] was 1.5 mcq./ml, the “Concentration that blocks 50% of amine uptake, Serotonin” value [1] was 40 mcq./ml and the “Concentration that blocks 50% of amine uptake, Dopamine” value [2] was > 100 mcq./ml.

For CNCCC=C1c2ccccc2CCc2ccccc21 [nortriptyline, reference compound], the “Activity in antagonism of apomorphine hypothermia” value [3] was “active” and the “Activity in reversal of reserpine hypothermia” value [4] was “active”.

CN(C)CCC(Oc1ccc2ccccc2c1)c1ccccc1.O=C(O)C(=O)O (stereo not drawn) [β-naphthyl, N,N-dimethyl 3-(β-naphthyloxy)-3-phenylpropylamine oxalate] was tested, and the “Concentration that blocks 50% of amine uptake, Norepinephrine” value [5] was > 100 mcq./ml, the “Concentration that blocks 50% of amine uptake, Serotonin” value [1] was 1 mcq./ml and the “Concentration that blocks 50% of amine uptake, Dopamine” value [2] was 100 mcq./ml.

In the case of COc1cccc(OC(CCN(C)C)c2ccccc2)c1.O=C(O)C(=O)O (stereo not shown) [m-methoxyphenyl, N,N-dimethyl 3-phenyl-3-(m-methoxyphenoxy)propylamine oxalate], the “Concentration that blocks 50% of amine uptake, Norepinephrine” value [5] is reported as “.2 mcq./ml”, the “Concentration that blocks 50% of amine uptake, Serotonin” value [1] is reported as “.08 mcq./ml” and the “Concentration that blocks 50% of amine uptake, Dopamine” value [2] is reported as “.5 mcq./ml”.

For CN(C)CCC(Oc1cccc(C(F)(F)F)c1)c1ccccc1.O=C(O)C(=O)O (stereo not shown) [m-trifluoromethylphenyl, N,N-dimethyl 3-phenyl-3-(m-trifluoromethylphenoxy) propylamine oxalate], the “Concentration that blocks 50% of amine uptake, Norepinephrine” value [5] was 8 mcq./ml, the “Concentration that blocks 50% of amine uptake, Serotonin” value [1] was “.18 mcq./ml” and the “Concentration that blocks 50% of amine uptake, Dopamine” value [2] was > 100 mcq./ml.

CN(C)CCC(Oc1ccc(C(F)(F)F)cc1)c1ccccc1 (stereo not shown) [p-trifluoromethylphenyl] gave an inhibition in vivo at 10 mg/kg [3, 8] of 24%.

CN(C)CCC(Oc1ccc(F)cc1)c1ccccc1 (stereo not shown) [p-fluorophenyl] gave an inhibition in vivo at 1 mg/kg [3, 6] of 26%, an inhibition in vivo at 3 mg/kg [3, 7] of 63% and an inhibition in vivo at 10 mg/kg [3, 8] of 116%. For the same compound, the inhibition in vivo at 1 mg/kg ([4]; Table 4, secondary amines) was 39%, the inhibition in vivo at 3 mg/kg ([4]; Table 4, secondary amines) was 32% and the inhibition in vivo at 0.3 mg/kg ([4]; Table 4, secondary amines) was 7%. It also gave an inhibition in vivo at 1 mg/kg [4, 9] of 10%, an inhibition in vivo at 3 mg/kg [4, 9] of 24% and an inhibition in vivo at 10 mg/kg [4, 9] of 49%. The inhibition in vivo at 0.3 mg/kg [4, 9] was 14%.

COc1ccc(OC(CCN(C)C)c2ccccc2)cc1 (stereo not shown) [p-anisyl] showed an inhibition in vivo at 10 mg/kg [3, 8] of 25%.

Cc1cccc(OC(CCN(C)C)c2ccccc2)c1.O=C(O)C(=O)O (stereo not shown) [m-tolyl, N,N-dimethyl 3-phenyl-3-(m-tolyloxy)propylamine oxalate] was tested, and the “Concentration that blocks 50% of amine uptake, Norepinephrine” value [5] was 12 mcq./ml, the “Concentration that blocks 50% of amine uptake, Serotonin” value [1] was “.7 mcq./ml” and the “Concentration that blocks 50% of amine uptake, Dopamine” value [2] was > 0 mcq./ml.

For CN(C)CCC(Oc1cccc2ccccc12)c1ccccc1.O=C(O)/C=C\C(=O)O (stereo not drawn) [α-naphthyl, N,N-dimethyl 3-(α-naphthyloxy)-3-phenylpropylamine maleate], the “Concentration that blocks 50% of amine uptake, Norepinephrine” value [5] was 3 mcq./ml, the “Concentration that blocks 50% of amine uptake, Serotonin” value [1] was “.03 mcq./ml” and the “Concentration that blocks 50% of amine uptake, Dopamine” value [2] was 2.5 mcq./ml. The inhibition in vivo at 1 mg/kg [3, 6] was -17%, the inhibition in vivo at 3 mg/kg [3, 7] was -10% and the inhibition in vivo at 10 mg/kg [3, 8] was -7%. It also gave an inhibition in vivo at 1 mg/kg [4, 9] of 15%, an inhibition in vivo at 3 mg/kg [4, 9] of 4% and an inhibition in vivo at 10 mg/kg [4, 9] of 15%.

For CN(C)CCCN1c2ccccc2CCc2ccccc21 [imipramine, reference compound], the “Reduction of apomorphine hypothermia” value ([3]; 10 mg./kg. dose, measured 60 minutes after injection of the apomorphine) was 100%, the “Activity in antagonism of apomorphine hypothermia” value [3] was “active” and the “Activity in reversal of reserpine hypothermia” value [4] was “active”.

Compound CN(C)CCC(Oc1cccc(Cl)c1)c1ccccc1 (stereo not shown) [m-chlorophenyl] has an inhibition in vivo at 1 mg/kg [3, 6] of 0%, an inhibition in vivo at 3 mg/kg [3, 7] of 13% and an inhibition in vivo at 10 mg/kg [3, 8] of 66%.

In the case of Cc1ccccc1OC(CCN(C)C)c1ccccc1 (stereo not shown) [o-tolyl], the inhibition in vivo at 3 mg/kg [3, 7] is reported as 11% and the inhibition in vivo at 10 mg/kg [3, 8] is reported as 94%.

COc1ccccc1OC(CCN(C)C)c1ccccc1 (stereo not shown) [o-anisyl] gave an inhibition in vivo at 1 mg/kg [3, 6] of 11%, an inhibition in vivo at 3 mg/kg [3, 7] of 30% and an inhibition in vivo at 10 mg/kg [3, 8] of 61%.

For CN(C)CCC(Oc1ccccc1F)c1ccccc1 (stereo not shown) [o-fluorophenyl], the inhibition in vivo at 1 mg/kg [3, 6] was -10%, the inhibition in vivo at 3 mg/kg [3, 7] was 11% and the inhibition in vivo at 10 mg/kg [3, 8] was 31%.
